Test results reported in patent publication US20240279205A1, “NOVEL BENZIMIDAZOLE DERIVATIVE” (Carna Biosciences, Inc., priority 2020, published 2024).
Counter-ions that a name gives are not always drawn.

Target: T1, human STING (hSTING) (Homo sapiens, UniProt Q86WV6)
T1 construct: host or cells: HEK-Blue ISG cells (HEK293-derived SEAP reporter line)
Test: Inhibition test of intracellular human STING (hSTING) pathway using SEAP reporter cells (HEK-Blue ISG), stimulation with Compound 3
Format: cell-based
Design: hSTING inhibitory activity: scale not given here
Conditions: Compound 3 10 nM stimulation, 21 hours
Procedure: Inhibition test of intracellular human STING (hSTING) pathway using reporter cells
Since STING activates the transcription factor IRF3 upon ligand stimulation, the activity of STING can be evaluated by a reporter assay using a secretory alkaline phosphatase (SEAP reporter) integrated downstream of an IRF-inducible promoter.
That is, the hSTING inhibitory activity of the test compound was evaluated using HEK-Blue™MISG cells (manufactured by Invivogen, #hkb-isg-1) incorporating a SEAP reporter. Activation of hSTING was performed by stimulation with the small molecule ligand Compound 3 as described in the literature (Ramanjulu, J. M., et al., Nature. 2018, 564 (7736), 439-443). HEK-Blue™MISG cells were seeded in a 96-well plate and cultured overnight at 37° C. in a 5% CO2 incubator. To each well of this cell culture plate, a test compound solution adjusted to a final concentration of 0.1 to 10 µM of the test compound was added, cultured for 1 hour in a CO2 incubator, and then Compound 3 (final concentration 10 nM) was added and further cultured in a CO2 incubator for 21 hours. After collecting the culture supernatant of each well, the reporter activity was measured by color development reaction with alkaline phosphatase.
The reporter activity of the test compound non-addition and Compound 3 addition group was set to 100%, and the reporter activity of the test compound non-addition and Compound 3 non-addition group was set to 0%. The IC50 value was determined by regression analysis of the inhibitory rate determined from the reporter activity at each compound concentration and the test compound concentration (logarithm).

T1 sequence (Q86WV6 whole entry H232R): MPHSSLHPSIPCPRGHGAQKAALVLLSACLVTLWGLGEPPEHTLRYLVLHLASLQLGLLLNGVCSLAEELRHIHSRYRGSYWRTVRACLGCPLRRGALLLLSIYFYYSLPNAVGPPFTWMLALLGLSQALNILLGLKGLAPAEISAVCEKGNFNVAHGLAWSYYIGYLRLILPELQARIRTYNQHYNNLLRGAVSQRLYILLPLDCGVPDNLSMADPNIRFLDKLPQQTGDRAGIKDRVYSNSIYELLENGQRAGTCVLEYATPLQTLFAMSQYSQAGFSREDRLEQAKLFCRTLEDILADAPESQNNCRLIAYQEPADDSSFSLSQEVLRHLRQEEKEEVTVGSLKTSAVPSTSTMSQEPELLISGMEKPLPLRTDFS

SMILES | hSTING inhibitory activity
Fc1cc(C2CCOCC2)cc2nc(Nc3c[nH]c4ccc(Cl)nc34)[nH]c12 [Embodiment 175, N-(5-Chloro-1H-pyrrolo[3,2-b]pyridin-3-yl)-7-fluoro-5-(tetrahydro-2H-pyran-4-yl)-1H-benzo[d]imidazol-2-amine] | * *
Fc1cc2[nH]c(Nc3c[nH]c4ccc(Cl)nc34)nc2cc1Oc1ccccc1 [Embodiment 193, N-(5-Chloro-1H-pyrrolo[3,2-b]pyridin-3-yl)-6-fluoro-5-phenoxy-1H-benzo[d]imidazol-2-amine] | * *
Cn1c(Nc2c[nH]c3ccc(Cl)nc23)nc2cc(F)c(Oc3ccccc3)cc21 [Embodiment 194, N-(5-Chloro-1H-pyrrolo[3,2-b]pyridin-3-yl)-5-fluoro-1-methyl-6-phenoxy-1H-benzo[d]imidazol-2-amine] | * *
Cn1c(Nc2c[nH]c3ccc(Cl)cc23)nc2cc(C3CCOCC3)ccc21 [Embodiment 197, N-(5-Chloro-1H-indol-3-yl)-1-methyl-5-(tetrahydro-2H-pyran-4-yl)-1H-benzo[d]imidazole-2-amine formate] | * *

Same assay, conditions: Compound 3 10 nM stimulation, 21 hours, read-out: hSTING inhibitory activity

SMILES | IC50 [µM]
Cn1ccc(-c2ccnc3c(Nc4nc5cc(Oc6ccccc6)ccc5[nH]4)c[nH]c23)n1 [Embodiment 165, N-[7-(1-methyl-1H-pyrazol-3-yl)-1H-pyrrolo[3,2-b]pyridin-3-yl]-5-phenoxy-1H-benzo[d]imidazole-2-amine] | 1 to 10
CN(C)C(=O)c1cccc2[nH]c(Nc3c[nH]c4ccc(Cl)nc34)nc12 [Embodiment 166, 2-[(5-Chloro-1H-pyrrolo[3,2-b]pyridin-3-yl)amino]-N,N-dimethyl-1H-benzo[d]imidazole-4-carboxamide] | ≥ 10
COCCn1c(Nc2c[nH]c3ccc(Cl)nc23)nc2c(C(F)(F)F)cccc21 [Embodiment 167, N-(5-Chloro-1H-pyrrolo[3,2-b]pyridin-3-yl)-1-(2-methoxyethyl)-4-(trifluoromethyl)-1H-benzo[d] imidazole-2-amine] | ≥ 10
Cn1c(Nc2c[nH]c3ccc(Cl)nc23)nc2cc(F)ccc21 [Embodiment 168, N-(5-Chloro-1H-pyrrolo[3,2-b]pyridin-3-yl)-5-fluoro-1-methyl-1H-benzo[d]imidazol-2-amine formate] | ≥ 10
C=Cc1ccc2[nH]cc(Nc3nc4cc(C(F)(F)F)ccc4n3C)c2n1 [Embodiment 171, 1-methyl-5-(trifluoromethyl)-N-(5-vinyl-1H-pyrrolo[3,2-b]pyridin-3-yl)-1H-benzo[d]imidazol-2-amine] | 1 to 10
Cn1c(Nc2c[nH]c3ccc(Cl)nc23)nc2cc(Cl)ccc21 [Embodiment 172, 5-Chloro-N-(5-chloro-1H-pyrrolo [3,2-b]pyridin-3-yl)-1-methyl-1H-benzo[d]imidazol-2-amine] | 1 to 10
CCc1ccc2[nH]cc(Nc3nc4cc(C(F)(F)F)ccc4n3C)c2n1 [Embodiment 173, N-(5-ethyl-1H-pyrrolo[3,2-b]pyridin-3-yl)-1-methyl-5-(trifluoromethyl)-1H-benzo[d]imidazol-2-amine] | ≥ 10
Cn1c(Nc2c[nH]c3ccc(Cl)nc23)nc2ccc(Oc3ccc(C#N)cc3)cc21 [Embodiment 174, 4-({2-[(5-chloro-1H-pyrrolo[3,2-b]pyridin-3-yl)amino]-1-methyl-1H-benzo[d]imidazol-6-yl} Oxy)benzonitrile] | ≥ 10
Cc1c(F)ccc2[nH]c(Nc3c[nH]c4ccc(Cl)nc34)nc12 [Embodiment 176, N-(5-Chloro-1H-pyrrolo[3,2-b]pyridin-3-yl)-5-fluoro-4-methyl-1H-benzo[d]imidazol-2-amine formate] | 1 to 10
O=[N+]([O-])c1cc2[nH]c(Nc3c[nH]c4ccc(Cl)nc34)nc2cc1F [Embodiment 177, N-(5-Chloro-1H-pyrrolo[3,2-b]pyridin-3-yl)-5-fluoro-6-nitro-1H-benzo[d]imidazol-2-amine] | 1 to 10
COCCn1c(Nc2c[nH]c3ccc(Cl)nc23)nc2ccc(C(F)(F)F)cc21 [Embodiment 179, N-(5-chloro-1H-pyrrolo[3,2-b]pyridin-3-yl)-1-(2-methoxyethyl)-6-(trifluoromethyl)-1H-benzo[d]imidazol-2-amine] | ≥ 10
COCCn1c(Nc2c[nH]c3ccc(Cl)nc23)nc2cccc(C(F)(F)F)c21 [Embodiment 180, N-(5-chloro-1H-pyrrolo[3,2-b]pyridin-3-yl)-1-(2-methoxyethyl)-7-(trifluoromethyl)-1H-benzo[d]imidazol-2-amine] | ≥ 10
COCCn1c(Nc2c[nH]c3ccc(Cl)nc23)nc2cc(-c3ccccc3)ccc21 [Embodiment 181] | ≥ 10
COCCn1c(Nc2c[nH]c3ccc(Cl)nc23)nc2ccc(-c3ccccc3)cc21 [Embodiment 182] | ≥ 10
Cn1c(Nc2c[nH]c3ccc(Cl)nc23)nc2c(F)c(F)ccc21 [Embodiment 183, N-(5-Chloro-1H-pyrrolo[3,2-b]pyridin-3-yl)-4,5-difluoro-1-methyl-1H-benzo[d]imidazol-2-amine] | ≥ 10
Cn1c(Nc2c[nH]c3ccc(Cl)nc23)nc2ccc(F)c(F)c21 [Embodiment 184, N-(5-Chloro-1H-pyrrolo[3,2-b]pyridin-3-yl)-6,7-difluoro-1-methyl-1H-benzo[d]imidazol-2-amine] | ≥ 10
Cn1c(Nc2c[nH]c3ccc(Cl)nc23)nc2cc(Oc3cccnc3)ccc21 [Embodiment 198, N-(5-chloro-1H-pyrrolo[3,2-b]pyridin-3-yl)-1-methyl-5-(pyridin-3-yloxy)-1H-benzo[d]imidazole-2-amine] | ≥ 10
COCCn1c(Nc2c[nH]c3ccc(Cl)nc23)nc2c(F)c(F)ccc21 [Embodiment 200, N-(5-chloro-1H-pyrrolo[3,2-b]pyridin-3-yl)-4,5-difluoro-1-(2-methoxyethyl)-1H-benzo[d] imidazole-2-amine] | ≥ 10
COCCn1c(Nc2c[nH]c3ccc(Cl)nc23)nc2ccc(F)c(F)c21 [Embodiment 201, N-(5-chloro-1H-pyrrolo[3,2-b]pyridin-3-yl)-6,7-difluoro-1-(2-methoxyethyl)-1H-benzo[d]imidazole-2-amine] | ≥ 10
COCCn1c(Nc2c[nH]c3ccc(Cl)nc23)nc2c(F)cc(F)cc21 [Embodiment 202, N-(5-chloro-1H-pyrrolo[3,2-b]pyridin-3-yl)-4,6-difluoro-1-(2-methoxyethyl)-1H-benzo[d]imidazole-2-amine] | ≥ 10
Cn1c(Nc2c[nH]c3ccc(Cl)nc23)nc2c(F)cc(F)cc21 [Embodiment 203, N-(5-Chloro-1H-pyrrolo[3,2-b]pyridin-3-yl)-4,6-difluoro-1-methyl-1H-benzo[d]imidazol-2-amine] | ≥ 10
Cn1c(Nc2c[nH]c3ccc(Cl)nc23)nc2cc(F)cc(F)c21 [Embodiment 204, N-(5-Chloro-1H-pyrrolo[3,2-b]pyridin-3-yl)-5,7-difluoro-1-methyl-1H-benzo[d]imidazol-2-amine] | ≥ 10
COCCn1c(Nc2c[nH]c3ccc(Cl)nc23)nc2cc(F)cc(F)c21 [Embodiment 205, N-(5-chloro-1H-pyrrolo[3,2-b]pyridin-3-yl)-5,7-difluoro-1-(2-methoxyethyl)-1H-benzo[d]imidazole-2-amine] | ≥ 10
COCCn1c(Nc2c[nH]c3ccc(Cl)nc23)nc2cc(Oc3cccnc3)ccc21 [Embodiment 206, N-(5-chloro-1H-pyrrolo[3,2-b]pyridin-3-yl)-1-(2-methylxhetyl)-5-(pyridin-3-yloxy)-1H-benzo[d] imidazol-2-amine] | ≥ 10
COCCn1c(Nc2c[nH]c3ccc(Cl)nc23)nc2ccc(Oc3cccnc3)cc21 [Embodiment 207, N-(5-Chloro-1H-pyrrolo[3,2-b]pyridin-3-yl)-1-(2-methylxhetyl)-6-(pyridin-3-yloxy)-1H-benzo[d] imidazol-2-amine] | ≥ 10
CC(C)Oc1ccc2nc(Nc3c[nH]c4ccc(Cl)nc34)n(C)c2c1 [Embodiment 209, N-(5-Chloro-1H-pyrrolo[3,2-b]pyridin-3-yl)-6-isopropoxy-1-methyl-1H-benzo[d]imidazol-2-amine] | 1 to 10
Cn1c(Nc2c[nH]c3ccc(Cl)nc23)nc2ccc(OC(F)(F)F)cc21 [Embodiment 211, N-(5-Chloro-1H-pyrrolo[3,2-b]pyridin-3-yl)-1-methyl-6-(trifluoromethoxy)-1H-benzo[d] imidazol-2-amine] | ≥ 10
Cn1cnc(-n2c(Nc3c[nH]c4ccc(Cl)cc34)nc3cc(C(F)(F)F)ccc32)c1 [Embodiment 227, N-(5-Chloro-1H-indol-3-yl)-1-(1-methyl-1H-imidazol-4-yl)-5-(trifluoromethyl)-1H-benzo[d] imidazole-2-amine] | ≥ 10
CN(C)C(=O)Cn1c(Nc2c[nH]c3ccc(Cl)cc23)nc2cc(C(F)(F)F)ccc21 [Embodiment 229, 2-{2-[(5-chloro-1H-indol-3-yl)amino]-5-(trifluoromethyl)-1H-benzo [d]imidazol-1-yl}-N,N-dimethyl Acetamide] | ≥ 10
